“And” between values parts separate entries of the source, which are not always exact repeats. Equal values may be shown once.
Conditions: Liquid, Transpiration method

CC(N)CN (stereo unspecified) [1,2-propanediamine]
Conditions | vapor or sublimation pressure [kPa]
273.8 K | 0.2726
274.9 K | 0.2967
276.6 K | 0.3411
277 K | 0.3482
279.1 K | 0.4011
279.7 K | 0.4205
281.3 K | 0.4594
282.7 K | 0.5281
283.2 K | 0.5245
285.3 K | 0.6214
285.7 K | 0.6306
287.3 K | 0.72
288.7 K | 0.7897
289.2 K | 0.8316
291.2 K | 0.9464
291.7 K | 0.9537
293.1 K | 1.069
294.7 K | 1.187
295.2 K | 1.234
297.1 K | 1.357
297.6 K | 1.422
299.1 K | 1.559
299.6 K | 1.629
301.2 K | 1.82
301.7 K | 1.84
303.2 K | 2.075
303.7 K | 2.099
305.7 K | 2.354

CC(C)(N)CN [2-methyl-1,2-propanediamine]
Conditions | vapor or sublimation pressure
276 K | 0.2878 kPa
276.6 K | 0.3031 kPa
277.6 K | 0.3267 kPa
278.1 K | 0.3442 kPa
279.3 K | 0.3687 kPa
280.6 K | 0.405 kPa
282.4 K | 0.4569 kPa and 0.4785 kPa
283.2 K | 0.492 kPa
284.5 K | 0.548 kPa and 0.5301 kPa
286 K | 0.5853 kPa
288.4 K | 0.7053 kPa
290.4 K | 0.7971 kPa
292.5 K | 0.9233 kPa
294.3 K | 1.052 kPa
295.9 K | 1.144 kPa
297.2 K | 1.299 kPa
299 K | 1.422 kPa
300.3 K | 1.575 kPa
302 K | 1.752 kPa
304.6 K | 2.037 kPa
306.1 K | 2.247 kPa
307.6 K | 2.451 kPa
308.7 K | 2.62 kPa
